In patent US5409933A, “Quinoline derivatives and processes for preparing the same” (priority 1993, dated 1995):
Where a name gives a salt, the structure may show the parent alone. Read-outs that look alike come from different tables or passages of the source.

Legend:
Assay in all cases: In Vitro Anti-Bacterial Activity Test (MIC, agar dilution)
Type in all cases: cell-based
[1] = system: Staphylococcus aureus SG511; conditions: Staphylococcus aureus SG511; Muller-Hinton agar, 37° C., 18 hours; read-out: MIC
Method in brief: (§1)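 Minimum inhibitory concentrations were determined by dilution of test compounds in Muller-Hinton agar, onto which 10^7 C.F.U./ml bacterial suspensions were inoculated and incubated at 37° C. for 18 hours.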

[2] = system: Klebsiella aerogenes 1522E; conditions: Klebsiella aerogenes, 1522E, 18 h, Klebsiella aerogenes 1522E; Muller-Hinton agar, 37° C., 18 hours; read-out: MIC
Method in brief: as §1

Escherichia coli 1507E = conditions: Escherichia coli, 1507E, 18 h, Muller-Hinton agar, 37° C.
Method in brief: as §1

[3] = system: Enterobacter cloacae 1321E
Method in brief: as §1

[4] = system: Staphylococcus aureus 285; conditions: Staphylococcus aureus, 285, 18 h, Staphylococcus aureus 285; Muller-Hinton agar, 37° C., 18 hours; read-out: MIC
Method in brief: as §1

[5] = system: Streptococcus faecium MD8b; conditions: Enterococcus faecium, Muller-Hinton agar, 37° C., 18 hours, read-out: MIC
Method in brief: as §1

[6] = system: Streptococcus pyogenes 77A
Method in brief: as §1

[7] = system: Pseudomonas aeruginosa 1771M; conditions: Pseudomonas aeruginosa, 1771M, 18 h, Muller-Hinton agar, 37° C.
Method in brief: as §1

[8] = system: Pseudomonas aeruginosa 1592E; conditions: Muller-Hinton agar, 37° C., 18 hours, read-out: MIC
Method in brief: as §1

[9] = system: Staphylococcus aureus 503; conditions: Staphylococcus aureus 503; Muller-Hinton agar, 37° C., 18 hours; read-out: MIC
Method in brief: as §1

[10] = system: Pseudomonas aeruginosa 1771; conditions: Pseudomonas aeruginosa 1771; Muller-Hinton agar, 37° C., 18 hours; read-out: MIC
Method in brief: as §1

Escherichia coli DC0 = conditions: Muller-Hinton agar, 37° C., 18 hours, read-out: MIC
Method in brief: as §1

Escherichia coli 078 = system: Escherichia coli 078
Method in brief: as §1

[11] = system: Pseudomonas aeruginosa 9027; conditions: Muller-Hinton agar, 37° C., 18 hours, read-out: MIC
Method in brief: as §1

Enterobacter cloacae P99 = conditions: Enterobacter cloacae, P99, 18 h
Method in brief: (§2)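 Agar dilution on Muller-Hinton agar; strains inoculated at 10^7 C.F.U./ml, incubated at 37° C. for 18 hours, then scored for visible growth. MIC taken as the lowest concentration preventing growth; ciprofloxacin served as control agent.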

[12] = system: Streptococcus pyogenes 308A; conditions: Muller-Hinton agar, 37° C., 18 hours, read-out: MIC
Method in brief: as §1

Escherichia coli DC2 = conditions: Escherichia coli, DC2, 18 h
Method in brief: as §1

Klebsiella oxytoca 1082E = conditions: Klebsiella oxytoca 1082E; Muller-Hinton agar, 37° C., 18 hours; read-out: MIC
Method in brief: as §1

Escherichia coli TEM = conditions: Escherichia coli, 18 h, Muller-Hinton agar, 37° C.
Method in brief: as §2

Salmonella typhimurium = conditions: Salmonella enterica; Salmonella typhimurium; Muller-Hinton agar, 37° C., 18 hours; read-out: MIC
Method in brief: as §1

[13] = Enterobacter cloacae 1321E, Muller-Hinton agar, 37° C., 18 hours, read-out: MIC
[14] = Streptococcus pyogenes 77A, Muller-Hinton agar, 37° C., 18 hours, read-out: MIC
[15] = Streptococcus pyogenes, 77A, 18 h
[16] = Enterobacter cloacae, 1321E, 18 h
[17] = Escherichia coli 078, Muller-Hinton agar, 37° C., 18 hours, read-out: MIC

| SMILES | MIC [1] | MIC [2] | MIC (Escherichia coli 1507E) | MIC [3, 13] | MIC [4] | MIC [5] | MIC [6, 14] | MIC [7] | MIC [8] | MIC [9] | MIC [10] | MIC (Escherichia coli DC0) | MIC (Escherichia coli 078; Escherichia coli, 078, 18 h) | MIC [11] | MIC (Enterobacter cloacae P99) | MIC [12] | MIC (Escherichia coli DC2) | MIC (Klebsiella oxytoca 1082E) | MIC (Escherichia coli TEM) | MIC (Salmonella typhimurium) | other results |
| --- | --- | --- | --- | --- | --- | --- | --- | --- | --- | --- | --- | --- | --- | --- | --- | --- | --- | --- | --- | --- | --- |
| CCOC(=O)C(C(=O)OCC)C(=O)c1cn(C2CC2)c2c(OC)c(N3CC[C@@H](NC)C3)c(F)cc2c1=O [Example 58, 1-cyclopropyl-6-fluoro-8-methoxy-7-(3-3R-methylaminopyrrolidin-1-yl)-3-(2,2-diethoxycarbonylacetyl)-1,4-dihydro-4-oxoquinoline hydrochloride] | 0.195 µg/mL | 0.195 µg/mL | 0.391 µg/mL | 0.098 µg/mL | 0.195 µg/mL | 1.56 µg/mL | 1.56 µg/mL | 0.781 µg/mL | 1.56 µg/mL | 0.195 µg/mL | 1.56 µg/mL | 1.56 µg/mL | 0.098 µg/mL | 1.56 µg/mL | 0.098 µg/mL | 1.56 µg/mL | 0.195 µg/mL | 0.049 µg/mL | 0.098 µg/mL | 0.195 µg/mL | – |
| CCOC(=O)C(C(=O)OCC)C(=O)c1cn(C2CC2)c2c(OC)c(N3CCC(NC)C3)c(F)cc2c1=O (centres unmarked) [Example 60, 1-cyclopropyl-6-fluoro-8-methoxy-7-(3-methylaminopyrrolidin-1-yl)-3-(2,2-diethoxycarbonylacetyl)-1,4-dihydro-4-oxoquinoline hydrochloride] | 0.195 µg/mL | 0.195 µg/mL | 0.195 µg/mL | 0.098 µg/mL | 0.195 µg/mL | 0.781 µg/mL | – | 0.781 µg/mL | 1.56 µg/mL | 0.098 µg/mL | 1.56 µg/mL | 0.781 µg/mL | 0.098 µg/mL | 1.56 µg/mL | 0.098 µg/mL | 1.56 µg/mL | 0.098 µg/mL | 0.013 µg/mL | 0.098 µg/mL | 0.098 µg/mL | MIC [6, 15]: 0.781 µg/mL |
| CN[C@@H]1CCN(c2c(F)cc3c(=O)c(C(=O)C[N+](=O)[O-])cn(C4CC4)c3c2Cl)C1 [Example 61, 1-cyclopropyl-6-fluoro-8-chloro-7-(3-3R-methylaminopyrrolidin-1-yl)-3-(2-nitroacetyl)-1,4-dihydro-4-oxoquinoline hydrochloride] | 0.013 µg/mL | 0.013 µg/mL | 0.007 µg/mL | – | 0.025 µg/mL | 0.098 µg/mL | 0.098 µg/mL | 0.098 µg/mL | 0.195 µg/mL | 0.025 µg/mL | 0.195 µg/mL | 0.049 µg/mL | – | 0.195 µg/mL | 0.007 µg/mL | 0.391 µg/mL | 0.013 µg/mL | 0.004 µg/mL | 0.007 µg/mL | 0.004 µg/mL | MIC [3, 16]: 0.007 µg/mL; MIC (Escherichia coli 078; [17]): < 0.002 µg/mL |
| CN[C@H]1CCN(c2c(F)cc3c(=O)c(C(=O)C[N+](=O)[O-])cn(C4CC4)c3c2Cl)C1 [Example 62, 1-cyclopropyl-6-fluoro-8-chloro-7-(3-3S-methylaminopyrrolidin-1-yl)-3-(2-nitroacetyl)-1,4-dihydro-4-oxoquinoline hydrochloride] | 0.013 µg/mL | 0.007 µg/mL | 0.007 µg/mL | – | 0.025 µg/mL | 0.049 µg/mL | 0.049 µg/mL | 0.098 µg/mL | 0.098 µg/mL | 0.013 µg/mL | 0.098 µg/mL | 0.025 µg/mL | – | 0.195 µg/mL | 0.007 µg/mL | 0.098 µg/mL | 0.013 µg/mL | < 0.002 µg/mL | 0.007 µg/mL | 0.025 µg/mL | MIC [3, 16]: 0.007 µg/mL; MIC (Escherichia coli 078; [17]): < 0.002 µg/mL |
| CNC1CCN(c2c(F)cc3c(=O)c(C(=O)C[N+](=O)[O-])cn(C4CC4)c3c2Cl)C1 (centres unmarked) [Example 63, 1-cyclopropyl-6-fluoro-8-chloro-7-(3-methylaminopyrrolidin-1-yl)-3-(2-nitroacetyl)-1,4-dihydro-4-oxoquinoline hydrochloride] | 0.025 µg/mL | 0.013 µg/mL | 0.007 µg/mL | 0.013 µg/mL | 0.049 µg/mL | 0.098 µg/mL | 0.098 µg/mL | 0.049 µg/mL | 0.195 µg/mL | 0.049 µg/mL | 0.195 µg/mL | 0.098 µg/mL | – | 0.391 µg/mL | 0.013 µg/mL | 0.391 µg/mL | 0.025 µg/mL | 0.007 µg/mL | 0.007 µg/mL | 0.004 µg/mL | MIC (Escherichia coli 078; [17]): < 0.002 µg/mL |
| CN[C@@H]1CCN(c2c(F)cc3c(=O)c(C(=O)C[N+](=O)[O-])cn(C4CC4)c3c2OC)C1 [Example 64, 1-cyclopropyl-6-fluoro-8-methoxy-7-(3-3R-methylaminopyrrolidin-1-yl)-3-(2-nitroacetyl)-1,4-dihydro-4-oxoquinoline hydrochloride] | 0.391 µg/mL | 0.098 µg/mL | 0.098 µg/mL | 0.049 µg/mL | 0.098 µg/mL | 0.391 µg/mL | – | 0.781 µg/mL | 1.56 µg/mL | 0.098 µg/mL | 0.781 µg/mL | 0.391 µg/mL | 0.049 µg/mL | 1.56 µg/mL | 0.049 µg/mL | 0.781 µg/mL | 0.049 µg/mL | 0.007 µg/mL | 0.049 µg/mL | 0.013 µg/mL | MIC [6, 15]: 0.781 µg/mL |
| CN[C@H]1CCN(c2c(F)cc3c(=O)c(C(=O)C[N+](=O)[O-])cn(C4CC4)c3c2OC)C1 [Example 65, 1-cyclopropyl-6-fluoro-8-methoxy-7-(3-3S-methylaminopyrrolidin-1-yl)-3-(2-nitroacetyl)-1,4-dihydro-4-oxoquinoline hydrochloride] | 0.049 µg/mL | 0.049 µg/mL | 0.195 µg/mL | 0.013 µg/mL | 0.049 µg/mL | 0.781 µg/mL | – | 1.56 µg/mL | 1.56 µg/mL | 0.098 µg/mL | 1.56 µg/mL | 0.781 µg/mL | 0.049 µg/mL | 1.56 µg/mL | 0.013 µg/mL | 0.781 µg/mL | 0.195 µg/mL | 0.049 µg/mL | 0.049 µg/mL | 0.781 µg/mL | MIC [6, 15]: 0.781 µg/mL |
